{"source": "paper PMC5903475", "about": "“Food-Derived Hemorphins Cross Intestinal and Blood–Brain Barriers In Vitro” (Frontiers in Endocrinology, 2018)", "key": {"[1]": {"settings": "background statement, no reference printed for it; cited from earlier work"}, "[2]": {"test_system": "Caco-2/TC7 cell barrier (human intestinal barrier model)", "settings": "for Passage of the intact peptide across the Caco-2 monolayer / Time of first appearance of the intact peptide in the basal compartment: 5 mM apical; for Passage of the intact peptide across the Caco-2 monolayer: basal samples 5-120 min, MRM; for Intact peptide or fragments present in the apical compartment, intestinal barrier / Intact peptide or fragments present in the basal compartment, intestinal barrier: peptide applied apically at 5 mM, end of the 120 min passage test, LC-MS/MS", "quoted_text": "For the experiment, they were seeded at the density of 60 × 10^3 cells cm^−2 into cell culture inserts in 6-well culture plates and grown for 21 days.\nThe day of the trans-intestinal transport test, growth media were removed, and cells were first rinsed with the transport medium, HBSS-Hepes buffer supplemented with CaCl2 (2.5 mM final) and MgCl2 (0.5 mM final) in the apical (1 mL) and basolateral chambers (2.5 mL), then pre-incubated for 30 min with the transport medium. All incubations were performed at 37°C, 10% CO2 atmosphere. To control the integrity of the Caco-2/TC7 cell barrier, the paracellular transport marker lucifer yellow (LY, 100 µM final) was applied apically into each well and its transport into the basolateral chamber was monitored by spectrofluorescence. Each hemorphin was diluted for a final concentration of 5 mM in transport medium-LY and applied to the apical chamber at t0. In parallel, control wells were incubated with transport medium-LY only and all conditions were tested in triplicate. At t5, 15, 30, and 60 min, 100 µL samples were collected in the basal chamber and replaced by the same volume of transport medium. At t120 min, all remaining media in basal and apical chambers were collected and all samples were stored at −80°C. The rate of LY transport was determined by fluorescence readings (ex 485/em 530 nm) at each time point on the spectrofluorometer Safas Xenius XC (Safas Monaco, Monaco, France) and calculating the apparent permeability coefficient (Papp) as follows: (ΔQ/Δt) × (Vb/(A × C0)), where ΔQ is the change in LY concentration in the basal chamber (μM); Δt is the transport duration (s); Vb is the volume in the basal chamber (mL); A is the surface area of the insert/transwell membrane (cm^2); and C0 is the initial concentration of LY applied to the apical chamber (μM).\nLC-MS/MS analysis was performed on a UFLC-XR device (Shimadzu, Kyoto, Japan) coupled to a QTRAP® 5500 MS/MS hybrid system triple quadrupole/linear ion trap mass spectrometer (AB Sciex, Foster City, CA, USA) equipped with a Turbo VTM ion source. Instrument control, data acquisition, and processing were performed using Analyst 1.5.2 software. The reverse phase liquid chromatography separation was carried out on a Kromasil C18 column (100 × 2.1 mm, 3.5 µm) with guard cartridge from AIT-France (Houilles, France). The injection volume was 2 µL. Elution was performed at a flow rate of 200 µL min^−1 with water-formic acid 0.1% as eluent A and acetonitrile-formic acid 0.1% as eluent B. The injection duty cycle was 10 min, starting with a 1 min plateau with 25% B, followed by a linear gradient from 25 B to 60% B in 4 min, a 1 min plateau with 60% B, 1 min linear gradient from 60 to 25% B, and 3 min at 25% B to recondition the column. MS analysis was carried out in positive ionization mode. The ion source parameters were optimized and set as follows: ion spray voltage, 5,500 V; nebulizer gas (air) and curtain gas (nitrogen) flows, 50 and 25 psi, respectively; source temperature, 550°C with the auxiliary gas flow (air) set at 50 psi; declustering potential (DP), 100 V; and collision cell exit potential, 25 V. The mass spectrometer was operated at a unit resolution for both Q1 and Q3 with a dwell time of 90 ms in each transition.\nThe presence of each intact hemorphin and potential fragments were tracked by a combination of multiple reaction monitoring (MRM) and pseudo-MRM transitions."}, "[3]": {"test_system": "mu- and kappa-transfected CHO-cells", "design": "method as in Fukuda et al. 45", "settings": "ref Fukuda et al. 45; cited from earlier work"}, "[4]": {"test_system": "FK-induced intracellular cAMP in Caco-2 cells", "experiment": "cAMP determination assay in forskolin-stimulated Caco-2 cells", "assay_type": "cell-based, human", "settings": "1 µM alone, 15 min", "description": "For the cAMP determination assay and the gene expression study, the cell line used was the Caco-2 cell line purchased from Sigma-Aldrich (Steinheim, Germany). Cells were grown at 37°C, 5% CO2 atmosphere in Dulbecco’s modified Eagle’s Medium (DMEM, 4.5 g L^−1 glucose) supplemented with 10% FBS, 2 mM L-glutamine, 100 U mL^−1 penicillin, and 100 µg mL^−1 streptomycin (complete DMEM) until use. Caco-2 from passages 34–37 were used. For the transport studies, the cell lines used and the culture protocols conditions are described in detail in dedicated subsections below.\nThe effect of the five opioid peptides/hemorphins on the cAMP production was assessed in vitro in Caco-2 cells. Each hemorphin was applied on Caco-2 cells stimulated or not by FK, an activator of the cAMP pathway, in order to evaluate the ability of the peptides to decrease intracellular cAMP elevation induced by FK. […] At the end of the 15 min incubation, cells were immediately rinsed three times with PBS and plates were stored at −80°C until intracellular cAMP levels determination with the Mouse/Rat cAMP Parameter Assay Kit according to the manufacturer’s guidelines. cAMP levels were normalized by the total protein concentration determined by the Pierce BCA Protein Assay Kit for each sample and expressed as a percentage of the reference condition FK only."}, "[5]": {"test_system": "BLEC blood-brain barrier model", "settings": "hemorphin 100 µM apical; Dunnett's post hoc", "description": "(§1) The day of the transport test, the same procedure as for the intestinal passage assay was applied except that the transwell inserts were transferred to a new 12-well culture plate at each time point, 30, 60, 90, and 120 min. All incubations were performed at 37°C, 5% CO2 atmosphere with slight agitations. The transport medium consisted in Ringer-Hepes solution (150 mM NaCl, 5.2 mM KCl, 2.2 mM CaCl2, 0.2 mM MgCl2⋅6H2O, 6 mM NaHCO3, 5 mM HEPES, pH 7.4). […] A test was performed without cells to insure that the filter membrane was not preventing the passage of the peptides."}, "[6]": {"test_system": "brain-like endothelial cells (BLEC) co-cultured with bovine brain pericytes (human BBB model)", "settings": "peptide applied apically at 100 µM; table footnote says end of 120 min test, Figure 4 says 30 min", "description": "The brain-like endothelial cell model has previously been described in detail ([28]). All the sample donors had given their written informed consent, in compliance with French legislation and the 2013 version of the Declaration of Helsinki. The sample collection was approved by the local investigational review board (Bethune Maternity Hospital Béthune, France). Briefly, this human model consists in isolating CD34+ cells from umbilical cord blood. These cells are then cultured in endothelial cell medium supplemented with 20% FCS for 15–20 days. After this period, cells are differentiated into endothelial cells. After a trypsinization step, they are seeded on matrigel coated-transwell inserts in 12-well culture plates, and subsequently cultured with brain pericytes, isolated from bovine brain capillaries. After 6 days of co-culture, human endothelial cells acquire the BBB phenotype, and are then named BLECs.\nas §1\nThe injection volume was 2 µL."}, "[7]": {"experiment": "physchem", "settings": "pH 7.4"}, "[8]": {"test_system": "Caco-2/TC7 cell barrier", "settings": "LY 100 µM with hemorphin 5 mM apical", "quoted_text": "The day of the trans-intestinal transport test, growth media were removed, and cells were first rinsed with the transport medium, HBSS-Hepes buffer supplemented with CaCl2 (2.5 mM final) and MgCl2 (0.5 mM final) in the apical (1 mL) and basolateral chambers (2.5 mL), then pre-incubated for 30 min with the transport medium. All incubations were performed at 37°C, 10% CO2 atmosphere. To control the integrity of the Caco-2/TC7 cell barrier, the paracellular transport marker lucifer yellow (LY, 100 µM final) was applied apically into each well and its transport into the basolateral chamber was monitored by spectrofluorescence. Each hemorphin was diluted for a final concentration of 5 mM in transport medium-LY and applied to the apical chamber at t0. […] The rate of LY transport was determined by fluorescence readings (ex 485/em 530 nm) at each time point on the spectrofluorometer Safas Xenius XC (Safas Monaco, Monaco, France) and calculating the apparent permeability coefficient (Papp) as follows: (ΔQ/Δt) × (Vb/(A × C0)), where ΔQ is the change in LY concentration in the basal chamber (μM); Δt is the transport duration (s); Vb is the volume in the basal chamber (mL); A is the surface area of the insert/transwell membrane (cm^2); and C0 is the initial concentration of LY applied to the apical chamber (μM)."}, "[9]": {"test_system": "blood-brain barrier", "settings": "125I-H7; rats; cited from earlier work"}, "[10]": {"test_system": "caco-2 cell monolayer", "design": "method as in PMID 18468445", "settings": "cited from earlier work"}}, "note": "Where a SMILES comes first, the peptide text is derived from it. Where no end group is shown, it is not given here.", "data": [{"compound": "C[C@@H](O)[C@H](NC(=O)[C@H](Cc1c[nH]c2ccccc12)NC(=O)[C@@H]1CCCN1C(=O)[C@@H](N)Cc1ccc(O)cc1)C(=O)O", "note": "[H4, YPWT] (H-YPWT-OH)", "values": [{"measurement": "Stability in plasma", "setting": "[1]", "value": "very stable in plasma"}, {"measurement": "Time of first identification of the fragment in basal samples", "setting": "[2]; fragment released from hemorphins applied at 5 mM, Caco-2 model", "value": 5, "unit": "min"}]}, {"compound": "C=CCN1CC[C@]23c4c5ccc(O)c4O[C@H]2C(=O)CC[C@@]3(O)[C@H]1C5", "note": "[naloxone]", "values": [{"measurement": "Activity at opioid receptors in transfected CHO-cells", "setting": "[3]", "value": "partial agonist activity"}, {"measurement": "Intracellular cAMP, % of FK levels", "setting": "[4]", "value": "68.42 ± 6.87", "unit": "%"}]}, {"compound": "LLVVYPWT [LLVV-H4, LLVV-YPWT]", "values": [{"measurement": "Papp(LY) compared to control, BBB model", "setting": "[5]", "value": "133.2 ± 16.44", "unit": "%"}, {"measurement": "Intact peptide or fragments present in the basal compartment, BBB", "setting": "[6]", "value": "H4, VV-H4, LVV-H4, LLVV-H4"}, {"measurement": "Passage of the intact peptide across the Caco-2 monolayer", "setting": "[2]", "value": "not detected"}, {"measurement": "solubility", "setting": "[7]", "value": "> 50", "unit": "µM"}, {"measurement": "Papp(LY) compared to control, intestinal barrier model", "setting": "[8]", "value": "decreased compared to control (non-significant)"}]}, {"compound": "LVVYPWT [LVV-H4, LVV-YPWT]", "values": [{"measurement": "Intact peptide or fragments present in the basal compartment, BBB", "setting": "[6]", "value": "H4, VV-H4, LVV-H4"}, {"measurement": "Time of first appearance of the intact peptide in the basal compartment", "setting": "[2]; Caco-2 model", "value": 60, "unit": "min"}, {"measurement": "Passage of the intact peptide across the Caco-2 monolayer", "setting": "[2]", "value": "clearly able to cross intact the cell monolayer"}, {"measurement": "Intact peptide or fragments present in the apical compartment, intestinal barrier", "setting": "[2]", "value": "LVV-H4, VV-H4, H4"}, {"measurement": "Intact peptide or fragments present in the basal compartment, intestinal barrier", "setting": "[2]", "value": "H4, VV-H4, LVV-H4"}]}, {"compound": "VVYPWT [VV-H4, VV-YPWT]", "values": [{"measurement": "Papp(LY) compared to control, BBB model", "setting": "[5]", "value": "142.2 ± 26.71", "unit": "%"}, {"measurement": "Intact peptide or fragments present in the basal compartment, BBB", "setting": "[6]", "value": "H4, VV-H4"}, {"measurement": "Time of first appearance of the intact peptide in the basal compartment", "setting": "[2]; Caco-2 model", "value": 60, "unit": "min"}, {"measurement": "Passage of the intact peptide across the Caco-2 monolayer", "setting": "[2]", "value": "clearly able to cross intact the cell monolayer"}, {"measurement": "Intact peptide or fragments present in the apical compartment, intestinal barrier", "setting": "[2]", "value": "VV-H4, H4"}, {"measurement": "Intact peptide or fragments present in the basal compartment, intestinal barrier", "setting": "[2]", "value": "H4, VV-H4"}]}, {"compound": "VVYPWTQRF [VV-H7, VV-YPWTQRF]", "values": [{"measurement": "Intact peptide or fragments present in the basal compartment, BBB", "setting": "[6]", "value": "H4, VV-H7, VV-H4, H7, H3, H5"}, {"measurement": "Passage of the intact peptide across the Caco-2 monolayer", "setting": "[2]", "value": "found in traces"}, {"measurement": "Intact peptide or fragments present in the apical compartment, intestinal barrier", "setting": "[2]", "value": "VV-H7, VV-H4, H7, H6"}, {"measurement": "Intact peptide or fragments present in the basal compartment, intestinal barrier", "setting": "[2]", "value": "H4, VV-H7, H7, H3"}, {"measurement": "Papp(LY) compared to control, intestinal barrier model", "setting": "[8]", "value": "decreased compared to control (non-significant)"}]}, {"compound": "YPWTQRF [H7, YPWTQRF]", "values": [{"measurement": "Time to BBB passage after intra-femoral artery injection", "setting": "[9]", "value": "≤ 15", "unit": "min"}, {"measurement": "Time of first appearance of the intact peptide in the basal compartment", "setting": "[2]; Caco-2 model", "value": 5, "unit": "min"}, {"measurement": "Passage of the intact peptide across the Caco-2 monolayer", "setting": "[2]", "value": "clearly able to cross intact the cell monolayer"}]}, {"compound": "endomorphine-1", "values": [{"measurement": "Permeability through a caco-2 cell monolayer", "setting": "[10]", "value": "low permeability"}]}]}
